According to ChEMBL document CHEMBL1201862, “PubChem BioAssay data set” (2004):
Active and inactive are the calls of the source.

Experiments:
Insulin-degrading enzyme [1] = target: T1, Insulin-degrading enzyme (Homo sapiens, UniProt P14735); assay: activators of endogenous IDE in HEK cells, dose response, cell-based, fluorescence polarization (AID 588439); format: functional
T1 sequence (P14735 whole entry): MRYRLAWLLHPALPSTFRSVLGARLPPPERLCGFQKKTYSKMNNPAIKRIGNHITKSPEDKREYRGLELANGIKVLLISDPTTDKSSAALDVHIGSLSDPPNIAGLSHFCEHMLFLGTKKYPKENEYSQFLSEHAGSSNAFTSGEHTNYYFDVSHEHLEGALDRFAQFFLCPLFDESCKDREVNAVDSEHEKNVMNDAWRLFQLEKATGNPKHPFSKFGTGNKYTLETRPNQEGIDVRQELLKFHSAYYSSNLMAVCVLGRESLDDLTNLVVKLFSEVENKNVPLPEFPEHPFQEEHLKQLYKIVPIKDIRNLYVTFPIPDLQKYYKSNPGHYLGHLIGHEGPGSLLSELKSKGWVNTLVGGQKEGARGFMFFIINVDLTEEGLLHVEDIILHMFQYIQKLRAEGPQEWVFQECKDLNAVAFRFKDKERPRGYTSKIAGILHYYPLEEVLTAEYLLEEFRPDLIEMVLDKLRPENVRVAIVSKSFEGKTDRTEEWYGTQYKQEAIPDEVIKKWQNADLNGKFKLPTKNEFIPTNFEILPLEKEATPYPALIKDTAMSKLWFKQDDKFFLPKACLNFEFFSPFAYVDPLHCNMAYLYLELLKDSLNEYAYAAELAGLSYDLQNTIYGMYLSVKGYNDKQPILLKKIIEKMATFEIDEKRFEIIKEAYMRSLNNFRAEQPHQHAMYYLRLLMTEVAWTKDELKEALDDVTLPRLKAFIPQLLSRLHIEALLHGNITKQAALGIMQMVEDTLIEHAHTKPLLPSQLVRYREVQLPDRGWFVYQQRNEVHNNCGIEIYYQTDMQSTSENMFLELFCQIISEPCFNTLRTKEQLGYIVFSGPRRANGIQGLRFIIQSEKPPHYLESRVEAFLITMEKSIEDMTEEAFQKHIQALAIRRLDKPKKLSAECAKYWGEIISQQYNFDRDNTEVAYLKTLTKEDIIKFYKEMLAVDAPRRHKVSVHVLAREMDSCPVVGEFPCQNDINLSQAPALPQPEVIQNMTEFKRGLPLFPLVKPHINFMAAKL

HEK293 [2] = assay: HEK cell cytotoxicity by LDH release, dose response, cytotoxicity control for IDE activator project, fluorescence, HEK cells (AID 588440); format: functional, cell-based; conditions: Homo sapiens;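 note: cytotoxicity by LDH release measuring loss of membrane integrity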
Insulin-degrading enzyme [3] = target: T1, Insulin-degrading enzyme; assay: activators of recombinant IDE enzyme, dose response, counter-screen for IDE activator project, biochemical, fluorescence polarization (AID 588681)
HEK293 [4] = assay: optical interference in Abeta FP readout, dose response, artefact control for IDE activator project, biochemical, fluorescence polarization (AID 588442); format: functional, cell-based; conditions: Homo sapiens
INS1 = assay: beta cell apoptosis inhibitors, cytokine rescue, dose response, luminescence, retest (AID 449756); format: functional, cell-based; conditions: Rattus norvegicus;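 note: cell death triggered by IL-1 beta plus TNF-alpha plus IFN-gamma mixture; protective hits raise ATP signal compared with cytokine alone wells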
[5] = target: T2, Ubiquitin-conjugating enzyme E2 N (Homo sapiens, UniProt P61088); format: functional;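 note: Dose-response confirmation in a TR-FRET assay detecting UBC13-driven polyubiquitin chain formation, inhibition measured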
T2 sequence (P61088 whole entry): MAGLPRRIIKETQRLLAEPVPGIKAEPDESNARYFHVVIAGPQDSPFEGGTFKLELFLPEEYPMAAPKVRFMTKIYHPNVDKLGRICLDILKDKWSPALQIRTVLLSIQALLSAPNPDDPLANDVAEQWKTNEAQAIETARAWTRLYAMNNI

[6] = target: T3, Methionyl-tRNA synthetase, putative (Trypanosoma brucei brucei, UniProt Q38C91); format: functional, Trypanosoma brucei brucei strain 927/4 GUTat10.1
T3 sequence (Q38C91 whole entry): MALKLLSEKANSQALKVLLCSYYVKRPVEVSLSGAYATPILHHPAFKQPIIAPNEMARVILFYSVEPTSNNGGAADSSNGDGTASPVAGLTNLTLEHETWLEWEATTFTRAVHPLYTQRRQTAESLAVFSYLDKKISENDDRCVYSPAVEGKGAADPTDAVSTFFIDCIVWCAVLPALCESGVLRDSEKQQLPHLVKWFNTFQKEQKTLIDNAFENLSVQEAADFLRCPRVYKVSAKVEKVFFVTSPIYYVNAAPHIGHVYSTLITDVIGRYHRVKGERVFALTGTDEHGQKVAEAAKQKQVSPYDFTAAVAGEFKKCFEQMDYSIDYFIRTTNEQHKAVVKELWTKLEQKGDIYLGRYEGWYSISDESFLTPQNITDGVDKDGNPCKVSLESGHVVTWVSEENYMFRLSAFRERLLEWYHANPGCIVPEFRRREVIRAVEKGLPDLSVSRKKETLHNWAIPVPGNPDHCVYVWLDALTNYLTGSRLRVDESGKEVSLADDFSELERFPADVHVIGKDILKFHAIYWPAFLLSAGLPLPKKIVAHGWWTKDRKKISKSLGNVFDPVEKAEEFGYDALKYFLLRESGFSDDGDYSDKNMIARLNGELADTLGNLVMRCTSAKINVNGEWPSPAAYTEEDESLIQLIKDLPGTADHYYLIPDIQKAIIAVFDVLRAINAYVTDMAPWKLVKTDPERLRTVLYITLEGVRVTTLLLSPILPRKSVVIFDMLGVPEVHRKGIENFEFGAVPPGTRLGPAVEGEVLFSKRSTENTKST

[7] = target: T3, Methionyl-tRNA synthetase, putative; format: functional, Trypanosoma brucei brucei strain 927/4 GUTat10.1; remark: listed apart in the source
[8] = Counterscreen for inhibitors of Trypanosoma brucei methionyl tRNA synthetase (MetRS): Luminescence-based cell-based high throughput dose response assay to identify compounds that are cytotoxic to Jurkat human T lymphocyte cells.; format: functional
Streptokinase A = target: T4, Streptokinase A (Streptococcus pyogenes serotype M1, UniProt P10520); assay: S. pyogenes streptokinase expression inhibitors, potency, dose response, plasminogen activation absorbance, OD405 (AID 1914); format: functional, Streptococcus pyogenes M1 GAS;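 note: secreted streptokinase activity via plasminogen activation per viability signal from cell pellet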
T4 sequence (P10520 whole entry): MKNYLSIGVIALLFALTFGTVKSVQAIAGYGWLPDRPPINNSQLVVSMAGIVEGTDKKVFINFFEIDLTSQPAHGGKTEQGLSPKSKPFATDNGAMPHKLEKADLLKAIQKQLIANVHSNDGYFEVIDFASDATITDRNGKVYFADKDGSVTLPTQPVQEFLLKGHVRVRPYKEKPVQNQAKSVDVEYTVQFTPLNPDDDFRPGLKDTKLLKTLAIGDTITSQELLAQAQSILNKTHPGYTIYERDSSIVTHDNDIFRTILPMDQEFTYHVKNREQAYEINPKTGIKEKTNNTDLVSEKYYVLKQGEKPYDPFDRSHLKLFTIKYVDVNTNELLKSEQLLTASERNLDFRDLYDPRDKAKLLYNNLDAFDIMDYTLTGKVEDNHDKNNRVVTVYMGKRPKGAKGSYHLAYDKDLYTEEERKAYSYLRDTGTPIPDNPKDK

[9] = test system: Streptococcus sp. 'group A'; assay: growth inhibition of control SK(-) GAS strain, dose response, counter-screen for streptokinase expression inhibitor project, luminescence, kanamycin, BacTiterGlo, confirmation (AID 1900); format: functional, organism-based
Streptococcus = assay: Group A Streptococcus viability loss, dose response, counter-screen for streptokinase expression inhibitor project, luminescence, BacTiterGlo (AID 1915); format: functional, organism-based;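 note: potency for reduction of bacterial viability or growth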
Vero = assay: Vero cell toxicity, dose response, cytotoxicity control, plate reader, cherry-pick samples (AID 687020); format: functional, cell-based; conditions: Chlorocebus sabaeus
[10] = target: T5, Histone-lysine N-methyltransferase NSD2 (Homo sapiens, UniProt O96028); format: biochemical
T5 sequence (O96028 whole entry): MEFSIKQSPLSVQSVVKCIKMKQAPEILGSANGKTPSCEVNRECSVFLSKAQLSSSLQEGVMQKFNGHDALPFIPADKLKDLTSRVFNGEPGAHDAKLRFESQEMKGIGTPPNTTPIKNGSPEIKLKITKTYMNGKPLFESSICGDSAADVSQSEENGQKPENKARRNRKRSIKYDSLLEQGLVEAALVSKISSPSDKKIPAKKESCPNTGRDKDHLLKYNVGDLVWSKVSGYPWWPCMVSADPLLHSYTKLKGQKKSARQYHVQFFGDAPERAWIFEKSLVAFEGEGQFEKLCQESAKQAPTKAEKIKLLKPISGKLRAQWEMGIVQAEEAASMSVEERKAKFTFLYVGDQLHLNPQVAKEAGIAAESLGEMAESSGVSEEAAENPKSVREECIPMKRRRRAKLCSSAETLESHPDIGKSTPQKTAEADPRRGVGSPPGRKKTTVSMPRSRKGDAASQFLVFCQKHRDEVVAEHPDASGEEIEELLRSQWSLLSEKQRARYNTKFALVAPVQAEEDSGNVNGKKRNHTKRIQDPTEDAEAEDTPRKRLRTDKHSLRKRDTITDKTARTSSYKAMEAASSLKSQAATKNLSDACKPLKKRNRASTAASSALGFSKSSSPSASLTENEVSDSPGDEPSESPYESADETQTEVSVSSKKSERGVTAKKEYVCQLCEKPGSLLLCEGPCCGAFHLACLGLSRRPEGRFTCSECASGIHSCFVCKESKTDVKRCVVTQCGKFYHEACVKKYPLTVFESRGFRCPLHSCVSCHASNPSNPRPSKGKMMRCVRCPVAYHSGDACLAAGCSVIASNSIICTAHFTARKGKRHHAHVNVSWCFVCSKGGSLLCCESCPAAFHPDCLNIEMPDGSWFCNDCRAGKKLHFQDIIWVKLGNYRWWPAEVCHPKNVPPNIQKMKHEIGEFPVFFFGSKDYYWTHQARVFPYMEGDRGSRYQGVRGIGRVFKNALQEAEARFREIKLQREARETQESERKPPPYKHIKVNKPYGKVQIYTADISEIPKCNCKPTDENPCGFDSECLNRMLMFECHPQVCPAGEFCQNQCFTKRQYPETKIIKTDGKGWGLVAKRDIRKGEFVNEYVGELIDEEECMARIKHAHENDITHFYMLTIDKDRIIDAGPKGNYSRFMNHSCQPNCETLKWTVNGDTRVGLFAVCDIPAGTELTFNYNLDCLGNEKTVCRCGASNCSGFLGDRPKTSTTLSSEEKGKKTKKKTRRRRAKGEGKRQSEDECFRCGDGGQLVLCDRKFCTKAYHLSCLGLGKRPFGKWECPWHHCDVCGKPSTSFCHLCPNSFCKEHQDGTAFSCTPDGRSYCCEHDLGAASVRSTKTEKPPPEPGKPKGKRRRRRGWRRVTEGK

[11] = target: T6, DNA repair and recombination protein RAD54-like (Homo sapiens, UniProt Q92698); assay: inhibitors of human RAD54 branch migration, confirmation, biochemical, fluorescence, cherry-picked samples, dose series (AID 651657); format: functional
T6 sequence (Q92698 whole entry): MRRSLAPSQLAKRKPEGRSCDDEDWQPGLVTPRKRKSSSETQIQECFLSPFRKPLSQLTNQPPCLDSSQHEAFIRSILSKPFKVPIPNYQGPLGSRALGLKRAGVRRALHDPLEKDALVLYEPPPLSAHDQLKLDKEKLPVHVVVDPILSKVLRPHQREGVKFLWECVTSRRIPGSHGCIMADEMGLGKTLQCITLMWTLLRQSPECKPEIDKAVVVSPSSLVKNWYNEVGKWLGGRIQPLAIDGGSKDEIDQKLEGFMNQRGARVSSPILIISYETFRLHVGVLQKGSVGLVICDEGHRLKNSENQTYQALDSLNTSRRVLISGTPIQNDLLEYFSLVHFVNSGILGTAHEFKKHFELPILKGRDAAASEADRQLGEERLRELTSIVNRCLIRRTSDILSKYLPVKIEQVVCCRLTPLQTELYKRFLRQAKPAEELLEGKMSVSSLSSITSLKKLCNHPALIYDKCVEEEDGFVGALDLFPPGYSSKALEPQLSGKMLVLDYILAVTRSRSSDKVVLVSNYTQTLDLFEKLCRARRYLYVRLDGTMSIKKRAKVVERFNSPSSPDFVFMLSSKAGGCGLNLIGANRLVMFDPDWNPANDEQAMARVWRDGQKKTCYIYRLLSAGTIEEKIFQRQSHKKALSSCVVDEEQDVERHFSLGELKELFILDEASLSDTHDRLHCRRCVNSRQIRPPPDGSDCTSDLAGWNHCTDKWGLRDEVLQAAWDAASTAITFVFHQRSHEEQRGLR

cells = format: functional

Row | Compound | EC50 (Insulin-degrading enzyme [1]) | IC50 (HEK293 [2]) | EC50 (Insulin-degrading enzyme [3]) | EC50 (HEK293 [4]) | IC50 [6] | IC50 [7] | IC50 [8] | other results
1 | O=C(c1ccccc1)N1CCN(c2ccc([N+](=O)[O-])c(NCc3cccnc3)c2)CC1 | > 54.7 µM (inactive) | > 89.2 µM (inactive) | > 54.7 µM (inactive) | > 54.7 µM (inactive) | – | – | – | –
2 | COC(=O)C1=C(C)N(Cc2ccccc2)C(NCc2cccc(C(F)(F)F)c2)=N[C@H]1c1cccc(C(F)(F)F)c1 | > 6.08 µM (active) | 13.6 µM (inactive) | > 54.7 µM (inactive) | > 54.7 µM (inactive) | – | – | – | AC50 (INS1): 5.53 µM (active); IC50 [5]: > 20 µM (inactive)
3 | O=C(COC(=O)CCCOc1ccc(Cl)cc1Cl)Nc1cccc(Cl)c1 | – | – | – | – | 9.07 µM (active) | 16.5 µM (inactive) | 83.3 µM (inactive) | –
4 | O=C(Nc1ccccc1)Nc1nnc(COc2ccccc2F)s1 | – | – | – | – | 42.9 µM (inactive) | 35.7 µM (inactive) | 71 µM (inactive) | –
5 | NC(=O)c1ccc(NC(=O)COC(=O)c2c3c(nc4ccccc24)/C(=C\c2ccc4c(c2)OCO4)CCC3)cc1 | > 54.7 µM (inactive) | > 89.2 µM (inactive) | > 54.7 µM (inactive) | > 54.7 µM (inactive) | – | – | – | EC50 (Streptokinase A): > 150 µM (not active); EC50 [9]: 13.6 µM (active); EC50 (Streptococcus): 140 µM (active)
6 | COc1ccc(C(C(=O)NC2CCCC2)N2CCc3ccccc32)cc1 (centres undefined) | – | – | – | – | – | – | – | AC50 (Vero): 29.5 µM (active)
7 | CCc1cc(Cn2nc(C(=O)O)cc2-c2ccccc2)on1 | > 54.7 µM (inactive) | > 89.3 µM (inactive) | > 54.7 µM (inactive) | > 54.7 µM (inactive) | – | – | – | –
8 | Nc1ccc(C2(c3ccc(N)cc3)CN3CCC2CC3)cc1 | – | – | – | – | – | – | – | AC50 [10]: 4.41 µM (active); AC50 [11]: 25.8 µM (active)
9 | N/N=C(/Cc1nc2ccccc2[nH]1)c1ccc([N+](=O)[O-])cc1 | – | – | – | – | 6.69 µM (active) | 3.17 µM (active) | 83.3 µM (inactive) | IC50 (cells): 19 µM (active)
